This note sets out measurements from patent publication US20120129870A1, “PIPERAZINYL DERIVATIVES USEFUL AS MODULATORS OF THE NEUROPEPTIDE Y2 RECEPTOR” (priority 2007, published 2012).

This assay addresses T1, NPY Y2 receptor (Homo sapiens, UniProt P49146).
T1 sequence (P49146 1-381): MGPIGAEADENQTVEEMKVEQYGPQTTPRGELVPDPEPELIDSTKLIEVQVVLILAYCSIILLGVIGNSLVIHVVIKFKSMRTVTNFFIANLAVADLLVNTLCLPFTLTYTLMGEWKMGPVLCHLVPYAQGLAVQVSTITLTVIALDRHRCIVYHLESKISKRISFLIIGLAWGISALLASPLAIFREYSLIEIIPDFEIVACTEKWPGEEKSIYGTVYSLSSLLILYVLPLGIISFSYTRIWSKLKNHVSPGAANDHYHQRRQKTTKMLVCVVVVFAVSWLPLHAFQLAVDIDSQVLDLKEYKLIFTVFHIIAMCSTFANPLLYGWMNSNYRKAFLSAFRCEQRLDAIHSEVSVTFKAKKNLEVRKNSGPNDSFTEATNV
In words: Neuropeptide Y2 radioligand binding assay ([125I]PYY, KAN-Ts membranes). Set-up: endogenous in cells; host or cells: KAN-Ts cells (membrane preparation). To be noted: KAN-Ts membranes endogenously expressing Y2, [125I]PYY (80 pM), 1 h at rt. The method, then:
KAN-Ts endogenously expressing Y2 receptors were used for the radioligand binding assay. Cells were grown to confluence on 150 cm^2 tissue culture plates, washed with phosphate-buffered saline (PBS), and scraped into 50 mL tubes. After centrifugation, the supernatant was aspirated, and the pellets frozen and stored at −80° C. Thawed pellets were homogenized with a polytron tissue grinder for 15 sec in 20 mM Tris-HCl, 5 mM EDTA. The homogenate was centrifuged at 800×g for 5 min and the collected supernatant was recentrifuged at 25000×g for 25 min. The resulting pellet was resuspended in binding buffer (20 mM HEPES, 120 mM NaCl, 0.22 mM KH2PO4, 1.3 mM CaCl2, 0.8 mM MgSO4). Membranes were incubated with [^125I]PYY (80 pM) in the presence or absence of test compound for 1 h at rt. The reaction was stopped by filtration through GF/C filter plates pre-soaked in 0.3% polyethylenimine and subsequently washed with Tris 50 mM, 5 mM EDTA buffer. Plates were dried for 1 h in a 55° C. oven, scintillation fluid was added and the radioactivity was counted in a Packard TopCount. Specific binding to the NPY receptor subtypes was determined by radioactivity that was bound in the presence of […]. Each binding experiment was repeated three to eight times, each in duplicate. IC50 values (i.e. concentration of unlabelled peptide or antagonist required to compete for 50% of specific binding to the radioligand) were calculated using the GraphPad Prism software (GraphPad Software Inc., San Diego Calif.) with a fit to a sigmoidal dose response curve. Apparent K, values were calculated as Ki=IC50/(1+C/KD), where C is concentration of the radioligand.

Some results are limits rather than exact numbers.

As a reminder, the IC50 is the concentration that inhibits the measured activity by half. The low end stands for inhibition by little substance, the high end for a need for much substance.

As to `O=C(Nc1ccc(N2CCN(C(c3ccccc3)c3ncco3)CC2)c(F)c1)C1CCCC1` (single isomer, unassigned) [Compound 126, Cyclopentanecarboxylic acid {3-fluoro-4-[4-(oxazol-2-yl-phenyl-methyl)-piperazin-1-yl]-phenyl}-amide], the IC50 came out at 340 nM.
In the case of `O=C(Nc1ccc(N2CCN(C(c3ccccc3)c3ccccc3)CC2)c(F)c1)[C@H]1CCOC1` (stereo in doubt) [Compound 14, Tetrahydro-furan-3-carboxylic acid [4-(4-benzhydryl-piperazin-1-yl)-3-fluoro-phenyl]-amide], the IC50 is 80 nM.
Turning to `O=C(Nc1ccc(N2CCN(C(c3ccccc3)c3ncco3)CC2)c(F)c1)[C@@H]1CCOC1` (stereo in doubt) [Compound 92, Tetrahydro-furan-3-carboxylic acid {3-fluoro-4-[4-(oxazol-2-yl-phenyl-methyl)-piperazin-1-yl]-phenyl}-amide], the IC50 came to 270 nM.
The compound `CC[C@@H](C)C(=O)Nc1ccc(N2CCN(C(c3ccccc3)c3ncco3)CC2)c(C#N)c1` (stereo in doubt) [Compound 93, N-{3-Cyano-4-[4-(oxazol-2-yl-phenyl-methyl)-piperazin-1-yl]-phenyl}-2-methyl-butyramide] yielded an IC50 of 32 nM.
In turn, `O=C(Nc1ccc(N2CCN(C(c3ccc(F)cc3)c3ncco3)CC2)c(F)c1)[C@@H]1CCOC1` (stereo in doubt) [Compound 127, Tetrahydro-furan-3-carboxylic acid (3-fluoro-4-{4-[(4-fluoro-phenyl)-oxazol-2-yl-methyl]-piperazin-1-yl}-phenyl)-amide] yielded an IC50 greater than 5000 nM.
For `CCC(CC)C(=O)Nc1ccc(N2CCN(C(c3ccc(F)cc3)c3ccc(F)cc3)CC2)c(F)c1` [Compound 12, N-(4-{4-[Bis-(4-fluoro-phenyl)-methyl]-piperazin-1-yl}-3-fluoro-phenyl)-2-ethyl-butyramide], the IC50 was determined as 330 nM.
As to `CCC(CC)C(=O)Nc1ccc(N2CCN(C(c3ccccc3)c3ccc(Cl)cc3)CC2)c(F)c1` (centres unmarked) [Compound 13, N-(4-{4-[(4-Chloro-phenyl)-phenyl-methyl]-piperazin-1-yl}-3-fluoro-phenyl)-2-ethyl-butyramide], the half-inhibitory concentration (IC50) amounted to 450 nM.
On to `CCC(CC)NC(=O)c1ccc(N2CCN(C(c3ccccc3)c3ncco3)CC2)c(F)c1` (centres unmarked) [Compound 46, N-(1-Ethyl-propyl)-3-fluoro-4-[4-(oxazol-2-yl-phenyl-methyl)-piperazin-1-yl]-benzamide], for which the half-inhibitory concentration (IC50) amounted to 1200 nM.
The result for `O=C(NC1CCCC1)c1ccc(N2CCN(C(c3ccccc3)c3ncco3)CC2)c(F)c1` (centres unmarked) [Compound 49, N-Cyclopentyl-3-fluoro-4-[4-(oxazol-2-yl-phenyl-methyl)-piperazin-1-yl]-benzamide] reads greater than 10000 nM.
Turning to `CCN(CC)C(=O)Cc1ccc(N2CCN(C(c3ccccc3)c3ccccc3)CC2)c(F)c1` [Compound 51, 2-[4-(4-Benzhydryl-piperazin-1-yl)-3-fluoro-phenyl]-N,N-diethyl-acetamide], the IC50 was 1550 nM.
Take `CCC(CC)C(=O)Nc1ccc(N2CCN(C(c3ccccc3)C3CC3)CC2)c(F)c1` (centres unmarked) [Compound 53, N-{4-[4-(Cyclopropyl-phenyl-methyl)-piperazin-1-yl]-3-fluoro-phenyl}-2-ethyl-butyramide]: the IC50 was determined as 78 nM.
The result for `CCC(CC)C(=O)Nc1ccc(N2CCN(C(c3ccccn3)c3ccccn3)CC2)c(F)c1` [Compound 55, N-{4-[4-(Di-pyridin-2-yl-methyl)-piperazin-1-yl]-3-fluoro-phenyl}-2-ethyl-butyramide] reads 54 nM; that for `Cc1cccnc1Nc1ccc(N2CCN(C(c3ccccc3)c3ncco3)CC2)c(F)c1` (centres unmarked) [Compound 57, {3-Fluoro-4-[4-(oxazol-2-yl-phenyl-methyl)-piperazin-1-yl]-phenyl}-(3-methyl-pyridin-2-yl)-amine], greater than 10000 nM; that for `Cn1ccnc1Nc1ccc(N2CCN(C(c3ccccc3)c3ncco3)CC2)c(F)c1` (centres unmarked) [Compound 58, {3-Fluoro-4-[4-(oxazol-2-yl-phenyl-methyl)-piperazin-1-yl]-phenyl}-(1-methyl-1H-imidazol-2-yl)-amine], greater than 10000 nM.
In the case of `Cc1ccnc(Nc2ccc(N3CCN(C(c4ccccc4)c4ncco4)CC3)c(F)c2)n1` (centres unmarked) [Compound 61, {3-Fluoro-4-[4-(oxazol-2-yl-phenyl-methyl)-piperazin-1-yl]-phenyl}-(4-methyl-pyrimidin-2-yl)-amine], the half-maximal inhibitory concentration (IC50) was greater than 10000 nM.
The result for `Cc1cccc(Nc2ccc(N3CCN(C(c4ccccc4)c4ncco4)CC3)c(F)c2)n1` (centres unmarked) [Compound 62, {3-Fluoro-4-[4-(oxazol-2-yl-phenyl-methyl)-piperazin-1-yl]-phenyl}-(6-methyl-pyridin-2-yl)-amine] reads 4700 nM; that for `Cc1ccccc1Nc1ccc(N2CCN(C(c3ccccc3)c3ncco3)CC2)c(F)c1` (centres unmarked) [Compound 63, {3-Fluoro-4-[4-(oxazol-2-yl-phenyl-methyl)-piperazin-1-yl]-phenyl}-o-tolyl-amine], 710 nM.
The result for `CCC(CC)C(=O)Nc1ccc(N2CCN(C(c3ccccc3)c3nccn3C)CC2)c(F)c1` (centres unmarked) [Compound 64, 2-Ethyl-N-(3-fluoro-4-{4-[(1-methyl-1H-imidazol-2-yl)-phenyl-methyl]-piperazin-1-yl}-phenyl)-butyramide] reads 170 nM; that for `CCC(CC)C(=O)Nc1ccc(N2CCN(C(c3ncco3)C3CC3)CC2)c(F)c1` (centres unmarked) [Compound 66, N-{4-[4-(Cyclopropyl-oxazol-2-yl-methyl)-piperazin-1-yl]-3-fluoro-phenyl}-2-ethyl-butyramide], 1500 nM.
Under `CC(C)C(=O)Nc1ccc(N2CCN(C(c3ccccc3)c3ncco3)CC2)c(F)c1` (centres unmarked) [Compound 72, N-{3-Fluoro-4-[4-(oxazol-2-yl-phenyl-methyl)-piperazin-1-yl]-phenyl}-isobutyramide] stands 320 nM; under `O=C(Nc1ccc(N2CCN(C(c3ccccc3)c3ncco3)CC2)c(F)c1)C1CCC1` (centres unmarked) [Compound 73, Cyclobutanecarboxylic acid {3-fluoro-4-[4-(oxazol-2-yl-phenyl-methyl)-piperazin-1-yl]-phenyl}-amide], 180 nM; under `Cc1cc(NC(=O)C(C)C)ccc1N1CCN(C(c2ccccc2)c2ncco2)CC1` (centres unmarked) [Compound 74, N-{3-Methyl-4-[4-(oxazol-2-yl-phenyl-methyl)-piperazin-1-yl]-phenyl}-isobutyramide], 2600 nM.
`Cc1cc(NC(=O)C2CCC2)ccc1N1CCN(C(c2ccccc2)c2ncco2)CC1` (centres unmarked) [Compound 76, Cyclobutanecarboxylic acid {3-methyl-4-[4-(oxazol-2-yl-phenyl-methyl)-piperazin-1-yl]-phenyl}-amide] showed an IC50 of 1400 nM.
Compound `CCC(CC)C(=O)Nc1ccc(N2CCN(C(c3ccccc3)C3CCC3)CC2)c(F)c1` (centres unmarked) [Compound 78, N-{4-[4-(Cyclobutyl-phenyl-methyl)-piperazin-1-yl]-3-fluoro-phenyl}-2-ethyl-butyramide] yielded a concentration for half-maximal inhibition (IC50) of 53 nM.
Compound `Cc1cc(NC(=O)C2CC2)ccc1N1CCN(C(c2ccccc2)c2ncco2)CC1` (centres unmarked) [Compound 81, Cyclopropanecarboxylic acid {3-methyl-4-[4-(oxazol-2-yl-phenyl-methyl)-piperazin-1-yl]-phenyl}amide] had an IC50 of 1700 nM.
Turning to `CCC(CC)C(=O)Nc1ccc(N2CCN(C(c3ccccc3)C3CCCC3)CC2)c(F)c1` (centres unmarked) [Compound 83, N-{4-[4-(Cyclopentyl-phenyl-methyl)-piperazin-1-yl]-3-fluoro-phenyl}-2-ethyl-butyramide], the IC50 was found to be 200 nM.
The compound `CCC(CC)C(=O)Nc1ccc(N2CCN(C(c3ccc(OC)cc3)C3CC3)CC2)c(F)c1` (centres unmarked) [Compound 84, N-(4-{4-[Cyclopropyl-(4-methoxy-phenyl)-methyl]-piperazin-1-yl}-3-fluoro-phenyl)-2-ethyl-butyramide] registered a half-maximal inhibitory concentration (IC50) of 290 nM.
The result for `CCC(CC)C(=O)Nc1ccc(N2CCN(C(c3ccccc3)c3ncco3)CC2)c(C#N)c1` (centres unmarked) [Compound 86, N-{3-Cyano-4-[4-(oxazol-2-yl-phenyl-methyl)-piperazin-1-yl]-phenyl}-2-ethyl-butyramide] reads 5 nM; that for `CC(C)C(=O)Nc1ccc(N2CCN(C(c3ccccc3)c3ncco3)CC2)c(C#N)c1` (centres unmarked) [Compound 87, N-{3-Cyano-4-[4-(oxazol-2-yl-phenyl-methyl)-piperazin-1-yl]-phenyl}-isobutyramide], 54 nM.
